Experimental findings from PubChem BioAssay (NCI) are described below.

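48-hour exposure; five concentrations; linearly interpolated endpoints. GI50 = concentration required for 50% inhibition of growth. TGI is the concentration that stops growth completely.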

What is called GI50 is the concentration giving 50% growth inhibition. By TGI is commonly meant the concentration giving total growth inhibition.

Test systems include SR leukemia; ACHN renal; UACC-62 melanoma; HCT-15 colon; A549 NSCLC; TK-10 renal; NCI-H23 lung; SW-620 colon; HCC-2998 colon; HOP-62 NSCLC.
Holding throughout (assay): DTP human tumour cell line panel, 48 h

`CC(C)(C)C(=O)Nc1ccccc1I(=O)=O`: the GI50 in the experiment on SR leukemia was 26 µM; in the experiment with ACHN renal, above 100 µM; in the experiment with UACC-62 melanoma it was above 100 µM; in the experiment with HCT-15 colon, above 100 µM; in the experiment with A549 NSCLC, above 100 µM; with TK-10 renal, above 100 µM. Further, the GI50 in the experiment on NCI-H23 lung, with SW-620 colon and in the experiment with HCC-2998 colon was above 100 µM each time. The TGI with SR leukemia, with ACHN renal, in the experiment on UACC-62 melanoma, in the experiment with HCT-15 colon, in the experiment with A549 NSCLC and with TK-10 renal was above 100 µM each time. Also, the TGI with NCI-H23 lung, with SW-620 colon and in the experiment with HCC-2998 colon was above 100 µM throughout.

With `COc1ccc(C2S/C(=C\c3cc(OC)c(OC)c(OC)c3)C(=O)N2NC(=O)Cc2ccccc2)cc1` (stereo not drawn), the TGI in the experiment with SR leukemia, in the experiment on ACHN renal, with HOP-62 NSCLC, in the experiment with UACC-62 melanoma, in the experiment on HCT-15 colon and in the experiment on A549 NSCLC was above 100 µM in each case. The total growth inhibition concentration (TGI) in the experiment with TK-10 renal, in the experiment with NCI-H23 lung and in the experiment with SW-620 colon was above 100 µM in each case.

In the case of `CC([C@H]1CCC2C3CCC4C[C@@H](NC=O)CC[C@]4(C)C3CC[C@@]21C)N(C)C` (stereo partly drawn), the GI50 in the experiment with ACHN renal was 5.17 µM; in the experiment on HOP-62 NSCLC, 2.15 µM; in the experiment on UACC-62 melanoma, 2.04 µM; in the experiment on HCT-15 colon, 1.56 µM; in the experiment with A549 NSCLC it was 3.32 µM; with TK-10 renal, 10.1 µM. For the same compound, the results for the GI50 with NCI-H23 lung, in the experiment with SW-620 colon and in the experiment with HCC-2998 colon were 4.73 µM, 1.85 µM and 2.48 µM, respectively. The TGI in the experiment on ACHN renal was 18 µM; in the experiment with HOP-62 NSCLC it was 5.19 µM; with UACC-62 melanoma, 4.08 µM; in the experiment with HCT-15 colon it was 4.66 µM; in the experiment with A549 NSCLC, 11.5 µM; in the experiment on TK-10 renal it was 24.7 µM. Besides, the values for the total growth inhibition concentration (TGI) with NCI-H23 lung, in the experiment on SW-620 colon and in the experiment with HCC-2998 colon were 19 µM, 3.95 µM and 7.29 µM, respectively.

Turning to `C[C@@H]1O[C@@H](O[C@@H]2[C@@H](O)[C@H](OCCc3ccc(O)c(O)c3)O[C@H](COC(=O)/C=C/c3ccc(O)c(O)c3)[C@H]2O)[C@H](O)[C@H](O)[C@H]1O`, the GI50 in the experiment on SR leukemia was 41.3 µM; in the experiment on ACHN renal, above 100 µM; in the experiment on HOP-62 NSCLC, above 100 µM; with UACC-62 melanoma, above 100 µM; in the experiment on HCT-15 colon, above 100 µM; in the experiment with A549 NSCLC, above 100 µM. Further, the values for the GI50 in the experiment with TK-10 renal and in the experiment on SW-620 colon were above 100 µM and 18.7 µM, respectively. The concentration for total growth inhibition (TGI) in the experiment on SR leukemia, in the experiment with ACHN renal, in the experiment with HOP-62 NSCLC, with UACC-62 melanoma, in the experiment with HCT-15 colon and in the experiment with A549 NSCLC was above 100 µM throughout. Moreover, the TGI with TK-10 renal was above 100 µM; with SW-620 colon, 37.9 µM.

As to `CN(C)CCCN=C(N)N`, the TGI in the experiment with SR leukemia, with ACHN renal, with HOP-62 NSCLC, with UACC-62 melanoma, in the experiment with HCT-15 colon and with A549 NSCLC was above 100 µM throughout. In addition, the total growth inhibition concentration (TGI) in the experiment on TK-10 renal, in the experiment with NCI-H23 lung and in the experiment with SW-620 colon was above 100 µM each time.

For `N#CC1=C(N)OC2=C(COc3ccc(F)cc32)C1c1ccc(Cl)cc1` (stereo not drawn), the GI50 with ACHN renal is 22.9 µM; in the experiment on HOP-62 NSCLC it was 38.3 µM; in the experiment with UACC-62 melanoma, 18.5 µM; with HCT-15 colon, 34.4 µM; in the experiment on A549 NSCLC, 93.4 µM; with TK-10 renal, 43.1 µM. The values for the GI50 with NCI-H23 lung, in the experiment on SW-620 colon and in the experiment with HCC-2998 colon were 29.6 µM, 53.3 µM and 25.6 µM, respectively. Moreover, the TGI with ACHN renal is 93.5 µM; in the experiment with HOP-62 NSCLC, above 100 µM; in the experiment on UACC-62 melanoma it was 42.6 µM; in the experiment on HCT-15 colon, above 100 µM; with A549 NSCLC it was above 100 µM; in the experiment on TK-10 renal, above 100 µM. Further, the results for the TGI in the experiment with NCI-H23 lung, in the experiment with SW-620 colon and in the experiment with HCC-2998 colon were 93.6 µM, above 100 µM and 60.2 µM, respectively.

On to `N#Cc1ccccc1NC(=O)/C(=N\NC(=O)c1ccncc1)C(c1cnc2ccc([N+](=O)[O-])cc2n1)[N+](=O)[O-]` (stereo not drawn), for which the TGI with ACHN renal, in the experiment on HOP-62 NSCLC, in the experiment with UACC-62 melanoma, in the experiment with HCT-15 colon, with A549 NSCLC and with TK-10 renal was above 100 µM in each case. Further, the TGI with NCI-H23 lung, in the experiment with SW-620 colon and in the experiment with HCC-2998 colon was above 100 µM in each case.

Consider `O=C1CCCCCCCC/C=C/CCC(c2ccco2)O1` (stereo not drawn), for which the GI50 in the experiment with ACHN renal is above 100 µM; with HOP-62 NSCLC, 41.2 µM; in the experiment on UACC-62 melanoma, 26.2 µM; in the experiment with HCT-15 colon it was above 100 µM; in the experiment with A549 NSCLC, above 100 µM; in the experiment with TK-10 renal, 23.5 µM. For the same compound, the GI50 with NCI-H23 lung is above 100 µM; in the experiment on SW-620 colon, 58.3 µM; with HCC-2998 colon, above 100 µM. Also, the TGI in the experiment with ACHN renal, in the experiment on HOP-62 NSCLC, in the experiment with UACC-62 melanoma, in the experiment with HCT-15 colon, in the experiment with A549 NSCLC and with TK-10 renal was above 100 µM throughout. In addition, the TGI with NCI-H23 lung, with SW-620 colon and with HCC-2998 colon was above 100 µM in each case.

As to `N#CC1=C(N)NC(=S)NC12Nc1ccccc1O2` (stereo not drawn), the GI50 in the experiment with SR leukemia is 0.597 µM; with ACHN renal, 29.2 µM; in the experiment with HOP-62 NSCLC it was 17.5 µM; in the experiment with UACC-62 melanoma it was 20.8 µM; in the experiment with HCT-15 colon it was 21.6 µM; in the experiment on A549 NSCLC it was 37.2 µM. In addition, the results for the GI50 with TK-10 renal, with NCI-H23 lung and in the experiment on SW-620 colon were 42.5 µM, 20.4 µM and 47.6 µM, respectively. In addition, the TGI in the experiment with SR leukemia was above 100 µM; in the experiment with ACHN renal, 99.2 µM; in the experiment on HOP-62 NSCLC it was 57.7 µM; in the experiment on UACC-62 melanoma, 70 µM; with HCT-15 colon, above 100 µM; in the experiment on A549 NSCLC it was above 100 µM. Besides, the TGI was above 100 µM in the experiment on TK-10 renal, 69.7 µM in the experiment on NCI-H23 lung and above 100 µM with SW-620 colon.
